Test results published in PubChem BioAssay AID248 (DTP/NCI, 2004).
“And” between values parts separate entries of the source, which are not always exact repeats. Equal values may be shown once. Toxic doses and inconclusive results are not listed. No stated cut-off is given here; in the data, active means T/C of 150% or more; inactive means T/C below 125%.

Tested on: L1210 leukemia ip in BDF1 mice, survival T/C
Test: NCI In Vivo Anticancer Drug Screen. Data for tumor model L1210 Leukemia (intraperitoneal) in B6D2F1 (BDF1) mice
Settings: endpoint: mean survival time, higher = longer survival
Summary of the method: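 Antitumor effect is assessed in tumor-bearing animals. Survival in the compound arm is compared with a vehicle-dosed control arm and expressed as their quotient.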

[1] = dose: 100.0 mg/kg/injection, schedule: Q04DX003 (ip), vehicle: other
[2] = dose: 100.0 mg/kg/injection, schedule: Q01DX001 (ip), vehicle: saline
[3] = dose: 200.0 mg/kg/injection, schedule: Q01DX001 (ip), vehicle: saline
[4] = dose: 400.0 mg/kg/injection, schedule: Q01DX001 (ip), vehicle: saline
[5] = dose: 100.0 mg/kg/injection, schedule: Q01DX009 (ip), vehicle: Klucel (hydroxypropylcellulose) (HPC)
[6] = dose: 100.0 mg/kg/injection, schedule: Q04DX003 (ip), vehicle: Klucel (hydroxypropylcellulose) (HPC)
[7] = dose: 200.0 mg/kg/injection, schedule: Q04DX003 (ip), vehicle: Klucel (hydroxypropylcellulose) (HPC)
[8] = dose: 400.0 mg/kg/injection, schedule: Q04DX003 (ip), vehicle: Klucel (hydroxypropylcellulose) (HPC)
[9] = dose: 25.0 mg/kg/injection, schedule: Q01DX009 (ip), vehicle: saline
[10] = dose: 50.0 mg/kg/injection, schedule: Q01DX009 (ip), vehicle: saline

Measured: T/C

Oc1ccc2ccccc2c1-c1nc2ccccc2s1
inactive: dose: 25.0 mg/kg/injection, schedule: Q04DX003 (ip), vehicle: other 94 % of control and 111 % of control | dose: 50.0 mg/kg/injection, schedule: Q04DX003 (ip), vehicle: other 97 % of control and 88 % of control | [1] 91 % of control

CC(C)NC=O
inactive: [2] 96 % of control | [3] 102 % of control | [4] 104 % of control

Cc1ccccc1C(Br)C1=CC(C)(C)c2ccccc2C1=O (stereo unspecified)
inactive: [5] 101 % of control | [6] 97 % of control | dose: 200.0 mg/kg/injection, schedule: Q01DX009 (ip), vehicle: Klucel (hydroxypropylcellulose) (HPC) 105 % of control | [7] 92 % of control | dose: 400.0 mg/kg/injection, schedule: Q01DX009 (ip), vehicle: Klucel (hydroxypropylcellulose) (HPC) 95 % of control | [8] 90 % of control

COC1OC(COS(=O)OC)C(O)C(O)C1OS(=O)OC (stereo unspecified)
inactive: dose: 100.0 mg/kg/injection, schedule: Q01DX001 (ip), vehicle: carboxymethylcellulose (CMC) 100 % of control | dose: 200.0 mg/kg/injection, schedule: Q01DX001 (ip), vehicle: carboxymethylcellulose (CMC) 97 % of control | dose: 400.0 mg/kg/injection, schedule: Q01DX001 (ip), vehicle: carboxymethylcellulose (CMC) 94 % of control

Clc1nccc2n[nH]nc12
inactive: dose: 100.0 mg/kg/injection, schedule: Q01DX001 (ip), vehicle: other 94 % of control | [1] 103 % of control | dose: 200.0 mg/kg/injection, schedule: Q01DX001 (ip), vehicle: other 91 % of control | dose: 200.0 mg/kg/injection, schedule: Q04DX003 (ip), vehicle: other 100 % of control | dose: 400.0 mg/kg/injection, schedule: Q01DX001 (ip), vehicle: other 103 % of control | dose: 400.0 mg/kg/injection, schedule: Q04DX003 (ip), vehicle: other 107 % of control

CC(=O)OC/N=[N+](/C)[O-]
inactive: dose: 2.0 mg/kg/injection, schedule: Q01DX Z (ip), vehicle: saline 98 % of control | dose: 4.0 mg/kg/injection, schedule: Q01DX Z (ip), vehicle: saline 110 % of control | dose: 6.0 mg/kg/injection, schedule: Q01DX Z (ip), vehicle: saline 97 % of control | dose: 8.0 mg/kg/injection, schedule: Q01DX Z (ip), vehicle: saline 104 % of control | dose: 12.5 mg/kg/injection, schedule: Q01DX Z (ip), vehicle: saline 91 % of control

CC(C)=CCC(=O)OC(CC=C(C)C)(c1ccccc1)C(C)CN(C)C (stereo unspecified)
inactive: [9] 100 % of control | [10] 90 % of control | dose: 100.0 mg/kg/injection, schedule: Q01DX009 (ip), vehicle: saline 89 % of control

Cn1c(=O)c2[nH]c(-c3ccc([N+](=O)[O-])cc3)nc2n(C)c1=O
inactive: dose: 50.0 mg/kg/injection, schedule: Q01DX001 (ip), vehicle: saline 98 % of control | [2] 93 % of control | [3] 96 % of control | [4] 93 % of control

C[CH2][Pb]([CH2]C)([CH2]C)[S]C(C)=O
inactive: dose: 1.5 mg/kg/injection, schedule: Q01DX009 (ip), vehicle: Klucel (hydroxypropylcellulose) (HPC) 89 % of control | dose: 3.0 mg/kg/injection, schedule: Q01DX009 (ip), vehicle: Klucel (hydroxypropylcellulose) (HPC) 101 % of control | dose: 12.5 mg/kg/injection, schedule: Q04DX002 (ip), vehicle: Klucel (hydroxypropylcellulose) (HPC) 102 % of control

CN(C)CCCN1c2ccccc2CCc2ccccc21
inactive: dose: 3.12 mg/kg/injection, schedule: Q01DX009 (ip), vehicle: saline 96 % of control | dose: 6.25 mg/kg/injection, schedule: Q01DX009 (ip), vehicle: saline 101 % of control | dose: 12.5 mg/kg/injection, schedule: Q01DX009 (ip), vehicle: saline 93 % of control | [9] 104 % of control | dose: 25.0 mg/kg/injection, schedule: Q04DX003 (ip), vehicle: saline 100 % of control | [10] 101 % of control | dose: 50.0 mg/kg/injection, schedule: Q04DX003 (ip), vehicle: saline 93 % of control | [2] 94 % of control | [3] 90 % of control

O=c1cc(-c2ccccc2)oc(-c2ccc(Cl)cc2)c1
inactive: dose: 25.0 mg/kg/injection, schedule: Q01DX009 (ip), vehicle: Klucel (hydroxypropylcellulose) (HPC) 98 % of control | dose: 50.0 mg/kg/injection, schedule: Q01DX009 (ip), vehicle: Klucel (hydroxypropylcellulose) (HPC) 98 % of control | [5] 100 % of control | [6] 97 % of control | [7] 90 % of control | [8] 100 % of control
